Reference: patent US4486433A, “Fused-ring amino-pyrazines as bradycardiacs” (Dr. Karl Thomae Gesellschaft mit beschrankter Haftung, priority 1980, dated 1984)

Legend:
[1] = test system: circulation of intact, anesthetized rats; test: Effect upon blood pressure and heart rate in intact, anesthetized rats after intravenous injection; format: in vivo; conditions: 3 mg/kg i.v.
Description: 1. Effect upon blood pressure and heart rate
The changes in the circulation of intact, anesthetized rats after intravenous injection of the test compound were recorded.
Male laboratory rats having a body weight of 120-360 gm were anesthetized with pentobarbital (70 mgm/kg). The animals breathed spontaneously through a tracheal cannula. The blood pressure was continuously measured in an A. carotis with the aid of an electro-mechanical pressure transducer; the pulse wave triggered a tachograph which continuously recorded the heart rate. Both parameters were plotted on a polygraph. The test compound was injected through a catheter into a V. jugularis.
At a dose of 3 mgm/kg i.v. the test compounds produced an initial increase in the blood pressure of short duration and then a long-lasting decrease in the blood pressure. The decrease in the heart rate was distinct and of long duration.

[2] = test system: presynaptic α-adrenoceptors; test: Inhibition of electrically induced tachycardia in the spinal rat; format: in vivo, rats; conditions: i.v.
From the text: There is an auto-regulation system of the noradrenaline release at the adrenergic nerve ends. The stimulation of presynaptic α-adrenoreceptors has an inhibiting effect upon the noradrenaline release and thus a limiting effect upon the adrenergic neurotransmission. Accordingly, upon stimulation of these "feedback receptors", the effect of a given adrenergic stimulation on the […] is reduced.
Male laboratory rats having a body weight of 350-400 gm were anesthetized with pentobarbital (50 mgm/kg i.p.), vagotomized, treated with atropine (1 mgm/kg s.c.), and a tracheal cannula was inserted. After enucleation of an eye, the orbita was punctured, the brain was destroyed, and a metal rod was pushed through the vertebral canal. Artificial respiration was applied to the animals, and they were pre-treated with gallamine (4 mgm/kg i.v.). […] Upon insertion of the rod into the vertebral canal, this uninsulated section is positioned in the area of the last cervical vertebra and the first thoracic vertebra. With the aid of a stimulator a supramaximal stimulus (rectangular impulses 50 V, 2 ms; 0.2 Hz; duration of stimulus 25 sec.) was applied against a counter-electrode inserted into the neck skin.
The blood pressure was measured in an A. carotis by means of an electro-mechanical pressure transducer. […] Both of these signals were recorded on a polygraph.

[3] = test system: postsynaptic α-adrenoreceptos; test: Hypertensive activity in the spinal rat; format: in vivo, rats; conditions: i.v.
Description: 3. Effect on postsynaptic α-adrenoreceptos: Hypertensive activity in the spinal rat
The increase in blood pressure which occurs upon stimulation of postsynaptic α-adrenoreceptos was measured on the spinal rat model.
Male laboratory rats having a body weight of 200-250 gm were anesthetized (1.2 gm/kg urethane i.p., 1 mgm/kg atropine s/c/). Thereafter, the central spinal cord canal was opened, the spinal cord was severed at C1, and the medulla oblongata and the brain were destroyed with a metal sound. Artificial respiration was applied to the animals, and a polyethylene catheter was tied into a jugular vein. The blood pressure was measured in an A. carotis and continuously recorded by means of a Statham element on a Grass polygraph. The test compound was administered i.v. by way of the catheter.
From the raw data thus obtained, the dose of the test compound which increases the arterial blood pressure by 30 mm Hg (D30) was determined.

Acute toxicity in mice = conditions: mouse, in vivo, observation time 14 days
Description: The acute toxicity was determined in mice after oral or intravenous administration. Observation time: 14 days.

| SMILES | Blood pressure, depressor phase (maximum value) [1] | Blood pressure, pressor phase (maximum value) [1] | Heart rate reduction (maximum value) [1] | D50 (dose which inhibits the electrically induced tachycardia by 50%) [2] | D30 (dose which increases the arterial blood pressure by 30 mm Hg) [3] | LD50 at 336 h (Acute toxicity in mice; iv) | LD50 at 336 h (Acute toxicity in mice; po) |
| --- | --- | --- | --- | --- | --- | --- | --- |
| CCN1CCc2nc(N)c(Cl)nc2CC1.Cl [E, 7-Ethyl-2-amino-3-chloro-6,7,8,9-tetrahydro-5H-pyrazino[2,3-d]azepine hydrochloride] | -11 mm Hg | +32 mm Hg | -70 beats/minute |  |  |  |  |
| CCN1CCc2nc(N)cnc2C1.Cl.Cl [G, 6-Ethyl-2-amino-5,6,7,8-tetrahydro-pyrido[3,4-b]pyrazine dihydrochloride] | -41 mm Hg | +6 mm Hg | -145 beats/minute | 670 μgm/kg | 1.4 mgm/kg |  |  |
| CN1CCc2ncc(N)nc2CC1.Cl.Cl [C, 2-Amino-6,7,8,9-tetrahydro-7-methyl-5H-pyrazino[2,3-d]azepine dihydrochloride] | -36 mm Hg | +26 mm Hg | -105 beats/minute |  |  |  |  |
| C=CCN1CCc2ncc(N)nc2CC1.Cl.Cl [B, 7-Allyl-2-amino-6,7,8,9-tetrahydro-5H-pyrazino[2,3-d]azepine dihydrochloride] | -20 mm Hg | +40 mm Hg | -122 beats/minute |  | 2.6 mgm/kg |  |  |
| CCN1CCc2ncc(N)nc2CC1.Cl.Cl [A, 7-Ethyl-2-amino-6,7,8,9-tetrahydro-5H-pyrazino[2,3-d]azepine dihydrochloride] | -20 mm Hg | +61 mm Hg | -116 beats/minute | 28 μgm/kg | 480 μgm/kg | 215 mg/kg | 1250 mg/kg |
| CCN1CCc2nc(N)c(Br)nc2CC1.Cl [Compound D, 7-Ethyl-2-amino-3-bromo-6,7,8,9-tetrahydro-5H-pyrazino[2,3-d]azepine hydrochloride] | -5 mm Hg | +50 mm Hg | -55 beats/minute |  |  |  |  |
| CCN1CCc2nc(C)c(N)nc2CC1.Cl.Cl [F, 7-Ethyl-2-amino-6,7,8,9-tetrahydro-3-methyl-5H-pyrazino-[2,3-d]azepine dihydrochloride] | -10 mm Hg | +38 mm Hg | -78 beats/minute |  |  |  |  |
| Cl.Nc1cnc2c(n1)CCN(C1CC1)CC2 [H, 2-Amino-7-cyclopropyl-6,7,8,9-tetrahydro-5H-pyrazino[2,3-d]azepine hydrochloride] | -28 mm Hg | +51 mm Hg | -110 beats/minute |  |  |  |  |
